Test results reported in patent publication US20240261315A1 (Omikron Italia S.r.l., priority 2021, published 2024).

What was measured:
[1] = set-up: species or system Sprague-Dawley rats; settings: male, Sprague-Dawley, rat, in vivo
Procedure: The bioavailability of citicoline existing in the composition, the invention relates to, was surveyed by making a bioavailability study on Sprague-Dawley rats. In particular, 30 Sprague-Dawley male rats, weighing 175 and 225 g, were subjected fasting 16 hours before administration.
For the preparation of the radiomarked formulations 14C-methylCiticoline and […] were used.
The preparations were purified by ion-exchange chromatography by using isobutyric acid:water-ammonia:EDTA (500:280:21:8), n-butanol:acetic acid:water (12:3:5), ethanol:1 mol/l ammonium acetate pH 7 (5:2), ethanol:saturated borax (8%):0.5 mol/l EDTA:5 mol/l ammonium acetate (220:80:0.5:20).
The samples were analysed with a liquid scintillator counter LSC, according to the programme for ^14C.
For the quantitative analysis Packard soluene (solubilizing agent), H2O2 (bleaching agent) and Packard Instagel (scintillator) were used as reagents.
The formulations were administered at the dose of 5 mg/kg respectively: Group 1, intravenously in the jugular vein; Group 2, in oral solution administered by nasogastric tube; Group 3, in tablets dissolved in saline solution and administered by nasogastric tube.
The collections of blood samples of about […] were obtained at programmed time (after administration at 10′, 20′, 30′, 1 h, 2 h, 3 h, 4 h, 5 h, 6 h, 7 h, 24 h). […]

[2] = system: glial fibrillary acidic protein GFAP; experiment: Glial activation, GFAP immunohistochemistry score in db/db mice; format: in vivo
Source text: (§1) The db/db mice have a mutation in the leptin receptor gene and they are an animal model of retinal neurodegeneration. Such model is useful to mime the pathophysiological events which are found in neurodegenerative pathologies such as glaucoma.
[…] Citicoline 0.5% (Cit.) in 10% lactose solution administered with nasogastric tube (SNG); • 2. […] 10% lactose solution (Placebo) administered with SNG; • 5. Healthy, non-diabetic control (Control).
Through immunohistochemical assays, neurodegeneration histological markers were researched (glial activation and apoptosis):
(iii) The glial activation was evaluated by means of confocal laser scanning microscopy by using antibodies directed to the glial fibrillary acidic protein GFAP (anti-GFAP of rabbit). To evaluate the level of glial activation a scoring system (from 1 to 5) was used based upon the extension of GFAP (glial fibrillary acidic protein) colouring.
The sections were fixed in methanol (−20° C.) for 2 minutes, followed by three washing with saline phosphate buffer PBS (5 minutes each one). The sections were treated with Tris Saline Buffer TBS-Triton X-100 (0.025%) and incubated in a 1% solution of bovine albumin serum BSA and 10% goat serum in PBS for 2 hours at room temperature. The sections were then incubated with anti-GFAP of rabbit overnight at 4° C. in humid atmosphere. After three washing in PBS, 5 minutes each one, the sections were incubated with the secondary antibody Alexa AF488 goat-anti-rabbit (dilution 1:200 prepared in blocking solution). The sections were washed in PBS, coloured with Hoestch and assembled with means Flourescence Mounting Medium with a cover glass. Once the mounting support has dried up, comparative digital images of the samples were recorded with a confocal laser scanning microscope Fluoview FV 1000 Olympus (Olympus, Shinjuku, Tokyo, Japan) by using identical brightness and contrast settings.

[3] = system: apoptotic cells in the GCL retinal layer; experiment: TUNEL assay of cellular apoptosis in retina of db/db mice; format: in vivo; settings: vs vehicle
Source text: as §1
20 db/db […] (BKS.Cg-+Leprdb/+Leprdb/OlaHsd, males, 10 weeks) were randomized in 5 groups and treated for 15 days by oral route with oral solutions based on: • 1. Citicoline 0.5% (Cit.) in 10% lactose solution administered with nasogastric tube (SNG); • 2. […] 10% lactose solution (Placebo) administered with SNG; • 5. Healthy, non-diabetic control (Control).
(iv) The search for events of cellular apoptosis was performed through TUNEL assay by using the kit DeadEnd™ Fluorometric TUNEL System (PROMEGA, Madison, WI, USA). The TUNEL (Terminal Transferase dUTP Nick-End Labeling) colouring was performed by using the Kit system TUNEL Fluorometric DeadEnd (PROMEGA, Madison, WI, USA). Cryosections of retina were permeabilized by incubation for 2 minutes on ice with 0.1% Triton X-100 in 0.1% sodium citrate. The secondary antibody was Alexa 488 goat-anti-rabbit. For the evaluation by means of confocal laser scanning microscopy the excitation wavelength was 488 nm (detection in the range 515-565 nm (green)).

[4] = system: patients affected by open-angle glaucoma; experiment: Clinical observation in open-angle glaucoma patients: intraocular pressure (Goldmann tonometry); format: in vivo, human; settings: after 6 months of treatment, in addition to hypotensive therapy, 3 patients
Procedure: 12 randomized patients were included in 4 groups: • CIT. GROUP-3 patients treated with citicoline in oral solution 10 ml/die corresponding to 500 mg/die of citicoline, in addition to the hypotensive therapy; • NIC. […] The patients were treated and followed for 6 months. At baseline and after 6 months of treatment complete eye examination including visual acuity, control of the intraocular pressure (IOP) with Goldmann tonometry (GAT); visual field testing, electro-functional and morphological examination were performed.

| Compound | bioavailability [1] [%] | GFAP score 1, share of mice [2] [%] | GFAP score 2, share of mice [2] [%] | GFAP score 3, share of mice [2] [%] | GFAP score 4, share of mice [2] [%] | GFAP score 5, share of mice [2] [%] | apoptosis in GCL retinal layer (TUNEL) [3] | IOP [4] |
| --- | --- | --- | --- | --- | --- | --- | --- | --- |
| C[N+](C)(C)CCOP(=O)([O-])OP(=O)(O)OC[C@H]1O[C@@H](n2ccc(N)nc2=O)C(O)C1O (stereo partly shown) [Citicoline, citidin-5′-difosfocholine] | ~100 | 71 | 22 | 7 | 0 | 0 | lower apoptosis rate with respect to the diabetic mice treated with the vehicle | 13.8 (±1.8) |
| NC(=O)c1cccnc1 [Nicotinamide] | ~100 | 72 | 18 | 10 | 0 | 0 | lower apoptosis levels than the diabetic mice treated with the vehicle but with not statistically significant levels | 14.0 (±2.3)^ |
